Laboratory results from patent US8674097B2, “Quinoxalinedione derivatives useful as activators of AMPK-activated protein kinase” (Merck Patent GmbH, priority 2008, dated 2014).

What was measured:
ob/ob and db/db mice = conditions: 8 day AICAR administration; cited from earlier work
[1] = molecular target: T1, AMPK protein (recombinant α1β1γ2) (Homo sapiens, UniProt Q13131+Q9UGJ0+Q9Y478); assay: AMPK enzymatic activity (Delfia, AMARA peptide); format: biochemical; conditions: compound 30 μM vs AMP 30 μM; 125 μM ATP; direct activator if ratio is 90% or higher
T1 construct: made in house; host or cells: E. coli
Method: The following biological test allows the determination of the efficacy of such compounds of formula (I) onto AMPK protein (recombinant α1β1γ2).
Human recombinant AMPK enzyme was expressed in E. Coli and was reactivated in vitro by LKB1 prior to enzyme activity determination. AMPK enzyme activities were assayed by using A Delfia technology. AMPK enzyme activities were carried out in microtiter plates (50 mM Hepes buffer, pH 7.4 with 125 μM ATP respectively) in the presence of a synthetic peptide substrate (AMARAASAAALARRR, the “AMARA” peptide) and activators in serial dilutions. Reactions were initiated by the addition of AMPK (50-100 ng). Following mixing, the plates were incubated for 30 min at room temperature. Enzyme activity was assayed by using an anti-phosphoserine antibody to measure the quantity of phosphate incorporated into the AMARAA.
Ratio between the % of control (basal activity) of compound of formula (I) at 30 μM and the % of control (basal activity) of AMP (natural […]) at 30 μM.
Compounds of formula (I) are considered as direct activator of AMPK if the ratio is 90% or higher.

T1 sequence (Q13131 whole entry): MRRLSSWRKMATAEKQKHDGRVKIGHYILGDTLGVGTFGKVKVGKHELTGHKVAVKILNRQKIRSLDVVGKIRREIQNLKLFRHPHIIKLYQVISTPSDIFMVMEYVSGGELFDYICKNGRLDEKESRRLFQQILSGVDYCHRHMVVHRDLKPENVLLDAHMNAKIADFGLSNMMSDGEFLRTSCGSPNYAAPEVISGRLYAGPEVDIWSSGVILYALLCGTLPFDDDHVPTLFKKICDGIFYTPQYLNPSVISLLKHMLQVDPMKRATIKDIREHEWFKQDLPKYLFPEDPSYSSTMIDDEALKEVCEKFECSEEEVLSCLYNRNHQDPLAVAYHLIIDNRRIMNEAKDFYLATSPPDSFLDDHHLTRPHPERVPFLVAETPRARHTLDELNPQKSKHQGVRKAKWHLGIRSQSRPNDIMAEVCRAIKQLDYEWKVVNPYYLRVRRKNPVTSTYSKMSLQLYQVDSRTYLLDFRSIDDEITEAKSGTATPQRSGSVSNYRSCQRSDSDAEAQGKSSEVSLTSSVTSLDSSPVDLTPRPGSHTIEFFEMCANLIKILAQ
T1 sequence (Q9Y478 whole entry): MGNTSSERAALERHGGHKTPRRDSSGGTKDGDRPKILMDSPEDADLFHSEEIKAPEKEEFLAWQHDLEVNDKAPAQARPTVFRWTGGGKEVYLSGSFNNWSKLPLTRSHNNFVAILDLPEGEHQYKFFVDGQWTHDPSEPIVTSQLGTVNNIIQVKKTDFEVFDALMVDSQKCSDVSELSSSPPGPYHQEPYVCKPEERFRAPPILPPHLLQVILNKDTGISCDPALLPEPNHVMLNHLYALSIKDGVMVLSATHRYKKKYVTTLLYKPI
T1 sequence (Q9UGJ0 whole entry): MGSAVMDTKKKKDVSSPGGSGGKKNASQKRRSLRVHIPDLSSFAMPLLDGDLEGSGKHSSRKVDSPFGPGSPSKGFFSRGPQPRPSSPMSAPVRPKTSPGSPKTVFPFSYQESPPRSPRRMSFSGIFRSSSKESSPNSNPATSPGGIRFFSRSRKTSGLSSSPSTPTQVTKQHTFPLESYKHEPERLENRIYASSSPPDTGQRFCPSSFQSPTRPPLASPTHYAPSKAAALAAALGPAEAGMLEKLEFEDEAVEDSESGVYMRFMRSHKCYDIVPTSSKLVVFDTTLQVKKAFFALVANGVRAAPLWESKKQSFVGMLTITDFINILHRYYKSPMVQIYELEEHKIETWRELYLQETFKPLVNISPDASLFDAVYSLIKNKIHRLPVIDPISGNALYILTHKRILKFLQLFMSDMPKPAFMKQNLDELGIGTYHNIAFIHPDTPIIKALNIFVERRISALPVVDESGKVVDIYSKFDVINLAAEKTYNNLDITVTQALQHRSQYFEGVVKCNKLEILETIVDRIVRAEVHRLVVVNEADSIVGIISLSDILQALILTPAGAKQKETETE

Activity: ratio between the % of control (basal activity) of compound at 30 μM and the % of control (basal activity) of AMP at 30 μM [1] [%]	Structure (SMILES)	reduction of blood glucose (ob/ob and db/db mice) [%]
–	NC(=O)c1ncn([C@@H]2O[C@H](CO)[C@@H](O)[C@H]2O)c1N [AICAR]	35
130	O=c1[nH]c2cccc(O)c2[nH]c1=O [5-hydroxy-1,4-dihydroquinoxaline-2,3-dione]	–
120	CC(=O)Oc1cccc2[nH]c(=O)c(=O)[nH]c12 [Acetic acid 2,3-dioxo-1,2,3,4-tetrahydro-quinoxalin-5-yl ester]	–
